# Results published in paper PMC10197068 (Bioconjugate Chemistry, 2023).
# Values joined by “and” are separate entries in the source; they are usually repeats but may differ in a detail not shown here. Equal entries are not always repeated.
# Columns and labels:
# Type in all cases: binding, human
# [1] = tested on: G1 (Na+) monomeric HTelo G4 DNA, AGGG(TTAGGG)3; experiment: CD melting with G1 (Na+); conditions: CD melting at 295 nm, 25 to 95 °C at 2 °C/min; 100 mM NaCl, 10 mM Li cacodylate, pH 7.3; [G4 unit] 6 μM, [salphen unit] 12 μM
# Experimental: (§1) Next, the DNA binding properties of the monomeric and dimeric compounds were studied. […] The following notation is used: […] The CD melting experiments were conducted solely with Na^+ stabilized DNA, which forms an antiparallel topology in solution (cf., in the presence of K^+ a mixture of topologies is observed). During the assay the temperature was increased from 25 to 95 °C upon which the intensity of signals with negative ellipticity at ca. 265 nm and positive ellipticity at ca. 295 (characteristic of an antiparallel G4 structure) decreased-see Figure 4a. This indicates the expected unfolding of the G4 DNA structure as the temperature increases. The changes in intensity were subsequently used to produce the corresponding melting curves (Figure 4b) for each sequence in the absence and presence of the different compounds under study. From these curves, the ΔTm values for the different sequences and compounds were determined, and the results are summarized in Figure 4c (see Supplementary Table 1 for values). […] G-Quadruplex oligonucleotides were purchased from Eurogentec (Belgium), and CT-DNA was purchased from Sigma-Aldrich. […] Prior to use, the DNA stock solutions were annealed by heating at 95 °C for 5 min and then cooling to room temperature overnight. Experiments were carried out on a Jasco J-810 spectrophotometer using a 1 cm quartz cuvette. Temperature was controlled using a Peltier module. The signal at 295 nm was monitored as temperature was increased for 25 to 95 °C at a rate of 2 °C/min. CD melting experiments were carried out with the appropriate G4 DNA (100 mM NaCl, 10 mM Li cacodylate, pH 7.3). Sample preparation was carried out by combining stock solutions of ligand and DNA in the appropriate buffer. […] Melting temperatures were obtained by curve fitting in Graphpad Prism 8. The data was normalized and fitted to a variable slope Hill equation, and the melting temperature was defined at the temperature at which y = 0.5.
# [2] = tested on: G2T1 (Na+) dimeric HTelo G4 DNA, AGGG(TTAGGG)7; experiment: CD melting with G2T1 (Na+); conditions: CD melting at 295 nm, 25 to 95 °C at 2 °C/min; 100 mM NaCl, 10 mM Li cacodylate, pH 7.3; [G4 unit] 6 μM (3 μM dimeric sequence), [salphen unit] 12 μM
# Experimental: as §1
# [3] = tested on: G2T6 (Na+) dimeric HTelo G4 DNA, AGGG(TTAGGG)3(TTA)5(TTAGGG)4; experiment: CD melting with G2T6 (Na+); conditions: CD melting at 295 nm, 25 to 95 °C at 2 °C/min; 100 mM NaCl, 10 mM Li cacodylate, pH 7.3; [G4 unit] 6 μM (3 μM dimeric sequence), [salphen unit] 12 μM
# Experimental: as §1
SMILES,ΔTm G1 (Na+) [1] [°C],ΔTm G2T1 (Na+) [2],ΔTm G2T6 (Na+) [3] [°C]
C[N+](C)(C)CCOc1ccc2c(c1)[O][Ni][O]c1cc(OCC[N+](C)(C)C)ccc1C=Nc1cc(C(=O)NCc3cn(CCOCCOCCn4cc(CNC(=O)c5ccc6c(c5)N=Cc5ccc(OCC[N+](C)(C)C)cc5[O][Ni][O]c5cc(OCC[N+](C)(C)C)ccc5C=N6)nn4)nn3)ccc1N=C2.F[P-](F)(F)(F)(F)F.F[P-](F)(F)(F)(F)F.F[P-](F)(F)(F)(F)F.F[P-](F)(F)(F)(F)F [Compound D2],2.66,13.80 °C,11.14
"C[N+](C)(C)CCOc1ccc2c(c1)[O][Ni][O]c1cc(OCC[N+](C)(C)C)ccc1C=Nc1ccccc1N=C2 [Compound M1, reference compound]",12.26,16.58 °C and 16 °C,18.77
